We go through one compound from article PMC4633953, “FR171456 is a specific inhibitor of mammalian NSDHL and yeast Erg26p” (Nature Communications, 2015).

One series has as its system Rhizopus oryzae NF4801. Description: Antifungal MIC. The following applies: Rhizopus arrhizus. The format is cell-based.
Series [1] deals with replicon-carrying Huh-7 cells. Description: Proliferation/viability of replicon-carrying Huh-7 cells (resazurin). The format is cell-based, human. As to conditions: replicon assay conditions. The procedure:
The inhibitor screening was performed in 1,536-well plate with 3,000 cells per well, using Huh-7 cells containing the HCV replicon subgenomic genotype 1b, maintained in DMEM, supplemented with (1 × ) L-glutamine (L-Glue), 1 × non-essential amino acids, 10% heat-inactivated fetal bovine serum (FBS), and 1 mg ml^–1 G418, and incubated with compounds for 48 h at 37 °C, 5% CO2. […] Following compound incubation, Resazurin solution (10 × : 1 μg μl^–1 Resazurin in DMSO) diluted to 1 × was then added to a volume of 0.5 μl to each well and incubated for further 3 h at 37 °C, 5% CO2 to monitor cell viability. Subsequently 15 μl, diluted 1:2 from stock of Steady- Glo (Promega) was added and the luminescence from the HCV replicon was monitored using the Envision (Envision US Lum, using 0.1 s per well measurement time).
On the technique in general: Replicon systems follow genome replication, usually without infectious particles.

Series [2] relates to ergosterol pathway intermediates in C. albicans SC5314. Description: Focused metabolomics: 13C-labelled ergosterol pathway intermediates in C. albicans. The format is cell-based. The following applies: increasing doses. The procedure: For ^13C- labelling studies, the wild type C. albicans strain SC5314 was obtained from ATCC (Manassas, VA) and was cultured at 30 °C in YPD broth (1% yeast extract, 2% peptone, 2% dextrose) or Synthetic Medium (3% glycerol, 0.1% glucose, 65 mM NH4Cl, 1.7 mM NaCl, 7 mM KH2PO4, 1 mM CaCl2, 0.5 mM MgSO4).
Approximately 1.25 × 10^8 C. albicans cells from a saturated YPD culture were inoculated into 100 ml Synthetic Medium (SM) and grown at 30 °C to an OD of 1.0. Cells were washed once in modified SM (25 mM KPO4 pH 7.0, with glucose omitted) and suspended to 5 OD600 units per ml in modified SM.
Labelling reactions were performed in 12-ml glass tubes with PTFE-lined caps (Corning) and containing 1 ml cell suspension (∼6 × 10^7 cells), 10 μl DMSO or 10 μl compound dissolved in DMSO, 12 μl 1M D-Glucose (U^-13C6 glucose), and 10 μl 1 M (1,2^-13C2) sodium acetate (Cambridge Isotope Laboratories, Inc). Before LC-MS analysis, dried lipid extracts were dissolved in 500 μl methanol, vortexed and sonicated for 10 min.
Squalene, ergosterol, lanosterol and zymosterol were quantified using the tandem mass spectrometer API4000 triple quadrupole (AB Sciex) with atmospheric pressure chemical ionization (APCI), interfaced to an Agilent LC.
Cells (∼6 × 10^7) and compounds were preincubated 15 min at 30 °C (without shaking) before the addition of labelled substrates. Labelling was performed at 30 °C with shaking for 4 h. Reactions were stopped by adding 1 ml 30% KOH, 1 ml 100% ethanol, and 0.2 ml 2% pyrogallol. Samples were mixed and then heated at 80 °C for 30 min, then cooled to room temperature. Non-saponifiable lipids were extracted two times in petroleum ether, washed with water, dried under nitrogen gas and stored at −80 °C.
For compound calibration, 2 μM solutions in 0.1% formic acid were directly infused into the mass spectrometer. Ergosterol, lanosterol and zymosterol undergo dehydration and their molecular species are detected as [M+H-H2O]^+ while squalene is detected as [M+H]^+. Supplementary Table 4 lists the multiple reaction monitoring parameters of the sterols and squalene, as well as the ^13C incorporated metabolites. The mass spectrometer source parameters are the following: CUR=40, GS1=60, NC=4.5. TEM=450 CAD=4. A mobile phase of 0.2% formic acid in methanol and isocratic run at 0.4 ml min^−1 was employed to separate the metabolites on a Waters XBridge C18 3.5 μm 2.1 × 50 mm column. The run time was 4.5 min.

For series [3], the system named is Fusarium verticillioides NF4901. Description: Antifungal MIC. The format is cell-based.
Another series concerns serum cholesterol. As to conditions: cited from earlier work.
A further series has as its system R. oryzae. Description: Combination with clinical antifungal agents (Loewe synergy). The format is cell-based. As to conditions: >1 is synergistic.

Where “and” joins values, the source holds several entries; their conditions need not be identical. Equal values may be shown once.

A word on the MIC: it is the lowest concentration found to suppress growth. Lower therefore signals greater potency. Turning to `C=C(CCC(C)C1CCC2C1(C)CC(O)C13CC14C(=O)CC(O)C(C)(C(=O)O)C4C(=O)CC23O)C(C)C` [FR171456, (1R,2aR,3R,5aR,5bS,7aR,8S,9S,11aS,12aR)-1,5b,9-trihydroxy-2a,8-dimethyl-3-((R)-6-methyl-5-methyleneheptan-2-yl)-7,11-dioxohexadecahydrocyclopenta[a]cyclopropa[e]-phenanthrene-8-carboxylic acid], the minimal inhibitory concentration (MIC) with Rhizopus oryzae NF4801 is 8 µg/mL and 18 µM. Moreover, the “concentration not affecting proliferation” value in series [1] is > 4 µM. For the same compound, in series [2], the “effect on 13C-labelled ergosterol” value was “dose-dependent reduction”, the “effect on 13C-labelled lanosterol” value was “increase” and the “effect on 13C-labelled zymosterol” value is “dose-dependent reduction”. For the same compound, the MIC in series [3] was 32 µg/mL and 72 µM. Further, the “dose giving significant reduction in serum cholesterol” value with serum cholesterol (rabbits treated for 3 weeks ref 14) was 1 µg/kg. Further, the adverse effects result with serum cholesterol (rabbits, 3 weeks, doses up to 1 mg kg^−1 ref 14) is on record as “no adverse effects reported”. Also, in the series with serum cholesterol (rabbits, efficacious doses for 14 days ref 14), the side effects result is “no reported side effects”. In addition, the Loewe synergy score with R. oryzae (combination with Amphotericin B) is listed as < 1. The Loewe synergy score with R. oryzae (combination with posaconazole) is on record as < 1.
